This is an account of results in patent US7728028B2, “Substituted imidazoline compounds” (Gruenenthal GmbH, priority 2005, dated 2010).

Broadly, the inhibition is the share of the control response that was lost under treatment.

T1 sequence (P35372 whole entry): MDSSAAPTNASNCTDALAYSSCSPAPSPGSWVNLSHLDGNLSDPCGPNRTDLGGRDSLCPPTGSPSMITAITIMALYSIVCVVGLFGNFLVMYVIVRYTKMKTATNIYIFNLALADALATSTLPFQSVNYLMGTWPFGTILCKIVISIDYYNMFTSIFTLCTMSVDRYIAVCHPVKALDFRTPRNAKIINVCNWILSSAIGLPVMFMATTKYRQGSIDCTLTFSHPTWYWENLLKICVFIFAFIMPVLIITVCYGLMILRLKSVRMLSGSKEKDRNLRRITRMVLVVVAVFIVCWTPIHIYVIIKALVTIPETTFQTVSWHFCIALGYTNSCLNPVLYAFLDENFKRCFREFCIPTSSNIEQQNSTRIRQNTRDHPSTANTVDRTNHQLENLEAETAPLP

This experiment addresses T1, human μ-opiate receptor (Homo sapiens, UniProt P35372).
T1 construct: purchased PerkinElmer Life Sciences, Zaventem, Belgium RB-HOM; host or cells: CHO-K1 cells (recombinant expression; membrane preparation)
Description: Affinity for the human μ-opiate receptor ([3H]-naloxone displacement, SPA). The following applies: Table 2, Examples 11-161; test substance 1 μmole/l; inhibition of specific [3H]-naloxone binding; CHO-K1 membranes; read-out: μ-Opioid receptor, % inhibition [1 μM]. The procedure, abridged: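 CHO-K1 membranes expressing the receptor, incubated 90 min at room temperature with 1 nmol/l [3H]-naloxone and WGA-SPA beads in 50 mmol/l Tris-HCl with 0.06% BSA. Non-specific binding defined with 100 μmol/l naloxone. Value is % inhibition of specific binding at 1 μmol/l test substance.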
As for `COC(=O)C1(CSC)N=CN(C2CCCCC2)C1CC1CCC(C(c2ccc(F)cc2)N(C)C)CC1` (stereo not shown) [Example 153, 1-cyclohexyl-5-{4-[dimethylamino-(4-fluorophenyl)-methyl]-cyclohexylmethyl}-4-methylsulfanylmethyl-4,5-dihydro-1H-imidazole-4-carboxylic acid methyl ester], the inhibition at 1 µM came out at 93%.
On to `COC(=O)CCC1(C(=O)OC)N=CN(Cc2ccccc2)C1CC1CCC(C(c2ccc(Cl)cc2)N(C)C)CC1` (stereo not shown) [Example 99, 1-benzyl-5-{4-[(4-chlorophenyl)-dimethylaminomethyl]-cyclohexylmethyl}-4-(2-methoxycarbonylethyl)-4,5-dihydro-1H-imidazole-4-carboxylic acid methyl ester], for which the inhibition at 1 µM came to 100%.
In the case of `COC(=O)CCC1(C(=O)OC)N=CN(Cc2ccccc2)C1CC1CCC(C(c2ccc(F)cc2)N(C)C)CC1` (stereo not shown) [Example 87, 1-benzyl-5-{4-[dimethylamino-(4-fluorophenyl)-methyl]-cyclohexylmethyl}-4-(2-methoxycarbonylethyl)-4,5-dihydro-1H-imidazole-4-carboxylic acid methyl ester], the inhibition at 1 µM stood at 95%.
For the compound `CCCN1C=NC(CCC(=O)OC)(C(=O)OC)C1C1CCC(C(c2ccc(Cl)cc2)N(C)C)CC1` (stereo not shown) [Example 59, 5-{4-[(4-chlorophenyl)-dimethylaminomethyl]-cyclohexyl}-4-(2-methoxycarbonylethyl)-1-propyl-4,5-dihydro-1H-imidazole-4-carboxylic acid methyl ester], the inhibition at 1 µM came out at 84%.
Take `CCCCN1C=NC(C(=O)OC)(C(C)CC)C1CC1CCC(C(c2cccc(F)c2)N(C)C)CC1` (stereo not shown) [Example 73, 1-butyl-4-sec-butyl-5-{4-[dimethylamino-(3-fluorophenyl)-methyl]-cyclohexylmethyl}-4,5-dihydro-1H-imidazole-4-carboxylic acid methyl ester]: the inhibition at 1 µM came out at 92%.
`CCCCN1C=NC(CCCC)(C(=O)OC)C1C1CCC(C(c2ccc(Cl)cc2)N(C)C)CC1` (stereo not shown) [Example 33, 1,4-dibutyl-5-{4-[(4-chlorophenyl)-dimethylaminomethyl]-cyclohexyl}-4,5-dihydro-1H-imidazole-4-carboxylic acid methyl ester]: the inhibition at 1 µM came out at 85%.
Under `CCC(C)C1(C(=O)OC)N=CN(CCc2ccccc2)C1CC1CCC(C(c2cccc(F)c2)N(C)C)CC1` (stereo not shown) [Example 81, 4-sec-butyl-5-{4-[dimethylamino-(3-fluorophenyl)-methyl]-cyclohexylmethyl}-1-phenethyl-4,5-dihydro-1H-imidazole-4-carboxylic acid methyl ester] stands 76%.
Consider `CCCN1C=NC(Cc2ccc(Cl)cc2)(C(=O)OC)C1C1CCC(C(c2ccc(Cl)cc2)N(C)C)CC1` (stereo not shown) [Example 25, 4-(4-chlorobenzyl)-5-{4-[(4-chlorophenyl)-dimethylaminomethyl]-cyclohexyl}-1-propyl-4,5-dihydro-1H-imidazole-4-carboxylic acid methyl ester], for which the inhibition at 1 µM turned out to be 83%.
On to `CCCCN1C=NC(CC(C)C)(C(=O)OC)C1C1CCC(C(c2ccc(Cl)cc2)N(C)C)CC1` (stereo not shown) [Example 31, 1-butyl-5-{4-[(4-chlorophenyl)-dimethylaminomethyl]-cyclohexyl}-4-isobutyl-4,5-dihydro-1H-imidazole-4-carboxylic acid methyl ester], for which the inhibition at 1 µM was found to be 91%.
With `COC(=O)CCC1(C(=O)OC)N=CN(Cc2ccccc2)C1C1CCC(C(c2cccc(F)c2)N(C)C)CC1` (stereo not shown) [Example 95, 1-benzyl-5-{4-[dimethylamino-(3-fluorophenyl)-methyl]-cyclohexyl}-4-(2-methoxycarbonylethyl)-4,5-dihydro-1H-imidazole-4-carboxylic acid methyl ester], the inhibition at 1 µM stood at 94%.
